Measured values reported in patent publication US20130324489A1, “NEW ANTIFUNGAL COMPOSITIONS” (DSM IP ASSETS B.V., priority 2011, published 2013).
Several values for one entry are separate records, joined by “and”; a condition that tells them apart may be missing. Identical values can stand only once.

Key:
Penicillium italicum = experiment: In vitro antifungal activity, 96-well microtiter plates; assay type: cell-based; settings: 0.63 ppm natamycin, 25° C.
Protocol: Subsequently, 100 μl of a Botrytis cinerea suspension prepared in PCB medium was used to inoculated each well with 2.5×10^3 spores/ml.
After incubation of the microtiter plates at 25° C., the in vitro antifungal activity (%) of the individual active ingredients was assessed by calculating the reduction in mould growth observed in the presence of the active ingredient in comparison to the mould growth observed in the absence of the active ingredient. The expected antifungal activity (E in %) of the active ingredient combination was calculated according to the Colby equation (Colby, 1967): […]
(§1) wherein X and Y are the observed antifungal activities (in %) of the individual active ingredients X and Y, respectively. If the observed antifungal activity (O in %) of the combination exceeds the expected antifungal activity (E in %) of the combination and the resulting synergy factor O/E is thus >1.0, the combined application of the active ingredients leads to a synergistic antifungal effect.
The experiment was conducted as described in Example 10, except for the fact that the following compositions were tested:
Furthermore, Penicillium italicum was used for inoculation. The antifungal activity (in %) of the individual and combined active ingredients was determined according to the method described in Example 10.

Botrytis cinerea = experiment: Treatment of wounded strawberries inoculated with Botrytis cinerea (dip, mould growth); assay type: in vivo; settings: 20° C.
Protocol: Ten fresh, organic strawberries were used per treatment. Each strawberry was wounded with a 0.5 mm long cut and each wound was inoculated with 10 μl of a Botrytis cinerea suspension containing 1×10^5 of spores/ml. […] The antifungal composition also comprised 3.1% (w/w) beeswax, 0.76% (w/w) glycerol, 0.66% (w/w) polyoxyethylene sorbitan monostearate (Tween 60), 0.03% (w/w) methylhydroxyethyl-cellulose (MHEC), 0.02% (w/w) xanthan gum, 0.02% (w/w) anti-foaming agent, 0.15% (w/w) citric acid and 0.01% (w/w) potassium sorbate. The pH of the compositions was 4. A composition without natamycin or procymidone was used as control. The treated strawberries were incubated in a closed box in the dark at 20° C. for 13 days.
During incubation, mould growth on the strawberries was assessed in a twofold manner: (i) the number of moulded strawberries per total of 10 strawberries was counted; and (ii) the antifungal activity (in %) of the individual and combined active ingredients was determined by calculating the reduction in mould growth observed on the strawberries treated with the antifungal composition in comparison to the mould growth on the strawberries treated with the control composition. The expected antifungal activity (E in %) of the combined antifungal composition comprising both active ingredients was calculated according to the Colby equation (Colby, 1967): […]
as §1, with “the” for “the resulting”
The treated strawberries were assessed on mould growth after 4, 5 and 7 days of incubation according to the two methods described in Example 3.
The treated strawberries were incubated for 9 days and, as of day 5, assessed on mould growth daily. The antifungal activity (in %) of the individual and combined active ingredients was determined according to the method described in Example 3.
During incubation, the treated strawberries were assessed on mould growth according to the two methods described in Example 3.

[1] = 5.0 ppm vinclozolin, 10 ppm procymidone, alone or natamycin + one of them, day 3
[2] = 50 ppm procymidone or both, day 5
[3] = 250 ppm natamycin, 250 ppm procymidone or both, day 4
[4] = 250 ppm natamycin, 250 ppm procymidone or both, day 5
[5] = 250 ppm natamycin, 250 ppm procymidone or both, day 6
[6] = 250 ppm natamycin, 250 ppm procymidone or both, day 7
[7] = 250 ppm natamycin, 250 ppm procymidone or both, day 8
[8] = 250 ppm natamycin, 250 ppm procymidone or both, day 9
[9] = 250 ppm natamycin, 250 ppm procymidone or both, day 10
[10] = 250 ppm natamycin, 250 ppm procymidone or both, day 12
[11] = 250 ppm natamycin, 500 ppm procymidone or both, day 5
[12] = 250 ppm natamycin, 500 ppm procymidone or both, day 6
[13] = 250 ppm natamycin, 500 ppm procymidone or both, day 7
[14] = 250 ppm natamycin, 500 ppm procymidone or both, day 8
[15] = 250 ppm natamycin, 500 ppm procymidone or both, day 9
[16] = 500 ppm natamycin, 1000 ppm procymidone or both, day 4
[17] = 500 ppm natamycin, 1000 ppm procymidone or both, day 5
[18] = 500 ppm natamycin, 1000 ppm procymidone or both, day 7
[19] = 500 ppm natamycin, 2000 ppm procymidone or both, day 5
[20] = 500 ppm natamycin, 2000 ppm procymidone or both, day 6
[21] = 500 ppm natamycin, 2000 ppm procymidone or both, day 7
[22] = 500 ppm natamycin, 2000 ppm procymidone or both, day 8
[23] = 500 ppm natamycin, 2000 ppm procymidone or both, day 8-10
[24] = 500 ppm natamycin, 2000 ppm procymidone or both, day 9
[25] = 500 ppm natamycin, 2000 ppm procymidone or both, day 10
[26] = 500 ppm natamycin, 2000 ppm procymidone or both, day 12
[27] = 500 ppm natamycin, 2000 ppm procymidone or both, day 13

Row | SMILES | Observed antifungal activity O (%) (Penicillium italicum; [1]) | Observed antifungal activity O (%) (Penicillium italicum; [2]) | Number of moulded strawberries/total number of 10 strawberries (Botrytis cinerea; [3]) | Observed antifungal activity O (%) (Botrytis cinerea; [3]) | Number of moulded strawberries/total number of 10 strawberries (Botrytis cinerea; [4]) | Observed antifungal activity O (%) (Botrytis cinerea; [4]) | Number of moulded strawberries/total number of 10 strawberries (Botrytis cinerea; [5]) | Observed antifungal activity O (%) (Botrytis cinerea; [5]) | Number of moulded strawberries/total number of 10 strawberries (Botrytis cinerea; [6]) | Observed antifungal activity O (%) (Botrytis cinerea; [6]) | Number of moulded strawberries/total number of 10 strawberries (Botrytis cinerea; [7]) | Observed antifungal activity O (%) (Botrytis cinerea; [7]) | Number of moulded strawberries/total number of 10 strawberries (Botrytis cinerea; [8]) | Observed antifungal activity O (%) (Botrytis cinerea; [8]) | Observed antifungal activity O (%) (Botrytis cinerea; [9]) | Observed antifungal activity O (%) (Botrytis cinerea; [10]) | Observed antifungal activity O (%) (Botrytis cinerea; [11]) | Observed antifungal activity O (%) (Botrytis cinerea; [12]) | Observed antifungal activity O (%) (Botrytis cinerea; [13]) | Observed antifungal activity O (%) (Botrytis cinerea; [14]) | other results
1 | CC12CC1(C)C(=O)N(c1cc(Cl)cc(Cl)c1)C2=O (stereo not drawn) [Procymidone, procymidone] | 0% | 0% | 10 and 10/10 | 58% | 10 and 10/10 | 41% | 10 and 10/10 | 34% | 10 and 10/10 | 31% | 10 and 10/10 | 27% | 10 and 10/10 | 13% | 10% | 5% | 39% | 26% | 20% | 20% | Observed antifungal activity O (%) (Botrytis cinerea; [15]): 17%; Observed antifungal activity O (%) (Botrytis cinerea; [16]): 69%; Number of moulded strawberries/total number of 10 strawberries (Botrytis cinerea; [17]): 10 and 10/10; Observed antifungal activity O (%) (Botrytis cinerea; [17]): 59%; Number of moulded strawberries/total number of 10 strawberries (Botrytis cinerea; [18]): 10 and 10/10; Observed antifungal activity O (%) (Botrytis cinerea; [18]): 44%; Number of moulded strawberries/total number of 10 strawberries (Botrytis cinerea; [19]): 8 and 8/10; Observed antifungal activity O (%) (Botrytis cinerea; [19]): 63%; Number of moulded strawberries/total number of 10 strawberries (Botrytis cinerea; [20]): 9 and 9/10; Observed antifungal activity O (%) (Botrytis cinerea; [20]): 51%; Number of moulded strawberries/total number of 10 strawberries (Botrytis cinerea; [21]): 10 and 10/10; Observed antifungal activity O (%) (Botrytis cinerea; [21]): 38%; Observed antifungal activity O (%) (Botrytis cinerea; [22]): 35%; Number of moulded strawberries/total number of 10 strawberries (Botrytis cinerea; [23]): 10 and 10/10; Observed antifungal activity O (%) (Botrytis cinerea; [24]): 23%; Observed antifungal activity O (%) (Botrytis cinerea; [25]): 13%; Number of moulded strawberries/total number of 10 strawberries (Botrytis cinerea; [26]): 10 and 10/10; Observed antifungal activity O (%) (Botrytis cinerea; [26]): 2%; Observed antifungal activity O (%) (Botrytis cinerea; [27]): 0%
2 | C[C@@H]1C/C=C/C=C/C=C/C=C/[C@H](O[C@@H]2O[C@H](C)[C@@H](O)[C@H](N)[C@@H]2O)C[C@@H]2O[C@](O)(C[C@@H](O)C[C@H]3O[C@@H]3/C=C/C(=O)O1)C[C@H](O)[C@H]2C(=O)O [Natamycin, natamycin] | 0% | 0% | 4 and 4/10 | 53% | 7 and 7/10 | 34% | 9 and 9/10 | 15% | 10 and 10/10 | 11% | 10 and 10/10 | 10% | 10 and 10/10 | 5% | 3% | 0% | 34% | 15% | 11% | 10% | Observed antifungal activity O (%) (Botrytis cinerea; [15]): 5%; Observed antifungal activity O (%) (Botrytis cinerea; [16]): 36%; Number of moulded strawberries/total number of 10 strawberries (Botrytis cinerea; [17]): 9 and 9/10; Observed antifungal activity O (%) (Botrytis cinerea; [17]): 12%; Number of moulded strawberries/total number of 10 strawberries (Botrytis cinerea; [18]): 10 and 10/10; Observed antifungal activity O (%) (Botrytis cinerea; [18]): 7%; Number of moulded strawberries/total number of 10 strawberries (Botrytis cinerea; [19]): 9 and 9/10; Observed antifungal activity O (%) (Botrytis cinerea; [19]): 12%; Number of moulded strawberries/total number of 10 strawberries (Botrytis cinerea; [20]): 9 and 9/10; Observed antifungal activity O (%) (Botrytis cinerea; [20]): 4%; Number of moulded strawberries/total number of 10 strawberries (Botrytis cinerea; [21]): 10 and 10/10; Observed antifungal activity O (%) (Botrytis cinerea; [21]): 7%; Observed antifungal activity O (%) (Botrytis cinerea; [22]): 5%; Number of moulded strawberries/total number of 10 strawberries (Botrytis cinerea; [23]): 10 and 10/10; Observed antifungal activity O (%) (Botrytis cinerea; [24]): 3%; Observed antifungal activity O (%) (Botrytis cinerea; [25]): 3%; Number of moulded strawberries/total number of 10 strawberries (Botrytis cinerea; [26]): 10 and 10/10; Observed antifungal activity O (%) (Botrytis cinerea; [26]): 0%; Observed antifungal activity O (%) (Botrytis cinerea; [27]): 0%
